Data set [1] is described as follows: Peptide stability in a human colon model (pooled human faecal slurry, anaerobic). It counts as in vitro ADME. The conditions noted are these: for higher stability than linear P1: at 30 min, relative to P1 (totally degraded); for Degradation rate constant / half-life at 1 mg/mL: fitted to exponential (one-phase, first-order) decay model; for Degradation rate constant: plateau 0.0; for remaining at 1.5 h, 1 mg/mL: after 1.5 h incubation, n = 3, read-out: peptide remaining intact (of starting concentration); for time interval in which entirely depleted: footnote to Table S1. The procedure:
The human colon model (HCM) was prepared to mimic in vivo colonic conditions and maintain microbial viability. Fresh human faecal material was provided voluntarily from 3 healthy individuals who had not taken antibiotics for at least 6 months. Approval for the collection and use of human faecal material was obtained from the National Research Ethics Service (NRES) of Royal Free Hospital Biobank (reference number NC2017.010). Faecal material from the 3 donors was pooled and then diluted within an anaerobic workstation (37 °C, 70% relative humidity) (Elektrotek, Yorkshire, United Kingdom), using an in-house basal growth media to prepare 12.5% or 25% faecal slurries. These slurry concentrations have been used to measure the colonic stability of several drugs and exceed the minimum concentrations required for biorelevant bacterial activity. The samples were homogenised before being sieved (SefarNitex™, pore size 350 µm) to remove fibrous material. Faecal slurry was frozen at −80 °C in aliquots and thawed immediately prior to use.
Peptide stability studies were conducted within the anaerobic workstation (Elektrotek, Yorkshire, United Kingdom). An amount of 2 mg/mL stock solutions of oxytocin and oxytocin variants were prepared and added to HCM at a 1:1 ratio, leading to 1 mg/mL incubation concentrations (n = 3 for each peptide). Incubation vials were placed on a 100 RPM shaker and 50 µL samples were withdrawn at specific time intervals (0, 0.5, 1 and 1.5 h) and immediately quenched with 50 µL methanol (1:1) to terminate protease activity. Samples were centrifuged at 16,900 RCF for 10 min at 4 °C, and the supernatant was collected for peptide quantification with a 1260 II Series™ HPLC system (Agilent Technologies, Cheadle, UK). A Luna C18 (5 µm, 100 Å, 150 × 4.6 mm) HPLC column was used with a 1.0 mL/min flow rate, an injection volume of 20 µL and mobile phases of 0.1% TFA in water and ACN, with varying gradients for optimised individual peptide quantification to prevent overlap with endogenous components of the HCM.
All results are presented as mean ± standard deviation and subjected to statistical analysis using GraphPad Prism 9 (GraphPad by Dotmatics). Two-way ANOVA with Dunnett’s multiple comparison test was performed to determine statistical significance between peptides and native oxytocin at multiple timepoints. Results were deemed significant where p < 0.05. The physicochemical properties of peptides were estimated using RDKit (version 2021.09.4) in Python (version 3.6.15) via Jupyter Notebook (version 6.3.0) using the peptides’ isomeric SMILES. The Tanimoto similarities of the peptide variants’ molecular structure to native oxytocin was calculated using chemical fingerprints (ECFP6, radius 3, 2048 bits) RDKit (version 2022.9.1) with Python (version 3.7.0) via Google Colaboratory. Chemical similarity maps were generated using RDKit based on bit-vector fingerprints (chirality = true, radius 3, 2048 bits) and Tanimoto similarity. The degradation profiles of peptides were fitted to an exponential decay model in GraphPad Prism 9. A nonlinear regression (one-phase decay, also known as first-order decay) curve was fitted to the peptide stability data with a plateau constraint of 0.0.

A short description of data set [2]: Peptide tissue permeability, Ussing chamber with rat colonic tissue. Type of data set: in vitro ADME. The conditions noted are these: for original dose detected in the basolateral chamber / original dose detected within the colonic tissue: at 2 h; for Papp at 2 h, 1 mg/mL: pH 7.4, 2 h (120 min). The procedure:
Peptide permeability studies were conducted using the NaviCyte Vertical Ussing chamber model (Harvard Apparatus, Cambridge, UK). Amounts of 250–300 g adult male Wistar rats (n = 3) were selected and sacrificed, in accordance with the accepted ethical standards of the National Research Ethics Service (ethical approval number 21/WA/0388). The rat colonic tissues were excised, processed to remove luminal contents and gently washed with Krebs-Ringer Bicarbonate (KBR) buffer (pH 7.4). Each colonic tissue was mounted on an Ussing chamber with the mucosal side facing the apical chamber. The tissue was allowed to acclimatise in the KBR buffer for 20 min. Transepithelial electrical resistance (TEER) across the tissue was measured using an EVOM^TM voltameter (World Precision Instruments, Inc., Hertfordshire, UK) and Ag/AgCl electrodes (Harvard Apparatus, Cambridge, UK). TEER values were measured to ensure the tissue integrity was maintained (≥200 Ω cm^2). The native oxytocin and oxytocin variants at 1 mg/mL concentrations were added to the apical chamber to measure peptide permeation into the tissue and into the basal chamber. Each peptide was tested twice using tissue from the three rats to account for any inter-animal variability. The Ussing chambers were continuously pumped with a supply of carbogen (95% oxygen/5% carbon dioxide) and maintained at 37 °C. An amount of 100 µL samples were taken from the basal side at 1 and 2 h timepoints. At 2 h, the tissues were collected, quenched with 6.25 µL methanol/mg tissue, sectioned with scissors, sonicated for 5 min and centrifuged for 10 min (4 °C, 16,900 RCF), with the supernatant used for peptide quantification. The amount of peptide within the basal chamber and tissue samples was measured with the HPLC method described in Section 3.3 and presented as the percentage of the peptide dose originally applied to the apical chamber. The apparent permeability (Papp) of peptides was calculated using Equation (1):(1) […]
Equation (1): Apparent permeability (Papp) of peptides across the rat colonic tissue was calculated using the peptide flux (µg/s, dQ/dt), the surface area of the tissue (cm^2) and the initial peptide concentration in the apical chamber (C0).

Where [3] appears, read: human, human colon model (pooled human faecal slurry, anaerobic), HCM.
The mark [4] stands for this setting: human, human colon model (HCM), pooled human faecal slurry.
[5] abbreviates: male, Wistar, 1 mg/mL apical, read-out: apparent permeability (Papp).

Bridge positions count the residues as written; N and C are the ends. Square brackets hold non-standard residues; d marks the D form. Ends that are not written are not given here. Peptide text beside a SMILES is read from it.

Broadly, the half-life is the time needed for the level to fall by half in the phase considered. A high value points to slow loss. One may read the Papp as a coefficient for how fast a substance crosses the barrier.

Regarding `CC[C@H](C)[C@@H]1NC(=O)[C@H](Cc2ccc(O)cc2)NC(=O)[C@@H](N)CSSC[C@@H](C(=O)N2CCC[C@H]2C(=O)N[C@@H](CC(C)C)C(=O)NCC(N)=O)NC(=O)[C@H](CC(N)=O)NC(=O)[C@H](CCC(N)=O)NC1=O` [Oxytocin, oxytocin, reference compound], in data set [1] (HCM), the “higher stability than linear P1” value is reported as 47.3 ± 1.98% and the Degradation rate constant amounted to 1.62 h⁻¹. For the same molecule, the remaining at 1.5 h, 1 mg/mL in data set [1] (setting [3]) stood at 6 ± 1.36%. In data set [1] (human, HCM), this molecule showed a half-life at 1 mg/mL of 25.7 min. Also, in data set [2], the “original dose detected in the basolateral chamber” value was “not detected” and the “original dose detected within the colonic tissue” value is on record as “not detected”.
Regarding `CC[C@H](C)[C@@H]1NC(=O)[C@H](Cc2ccc(O)cc2)NC(=O)[C@@H](NC(C)=O)CSSC[C@@H](C(=O)N2CCC[C@H]2C(=O)N[C@@H](CC(C)C)C(=O)NCC(N)=O)NC(=O)[C@H](CC(N)=O)NC(=O)[C@H](CCC(N)=O)NC1=O` [Peptide P2], the Degradation rate constant in data set [1] (HCM) turned out to be 3.17 h⁻¹. Also, in data set [1] (setting [4]), the half-life at 1 mg/mL was 13.1 min. For the same molecule, the metabolised at 1.5 h, 1 mg/mL in data set [1] (human, human colon model (pooled human faecal slurry, anaerobic), HCM, after 1.5 h, read-out: peptide degraded by the HCM) turned out to be 97.2 ± 0.84%.
For the molecule `CC[C@H](C)[C@@H]1NC(=O)[C@H](Cc2ccc(O)cc2)NC(=O)[C@H](C)NC(=O)CSC[C@@H](C(=O)N2CCC[C@H]2C(=O)N[C@@H](CC(C)C)C(=O)NCC(N)=O)NC(=O)[C@H](CC(N)=O)NC(=O)[C@H](CCC(N)=O)NC1=O` [Peptide P3] ({CH2CO}-AYIQNCPLG-NH2; thioether N-6), the Degradation rate constant in data set [1] (HCM) came to 0.688 h⁻¹. In addition, the half-life at 1 mg/mL in data set [1] (setting [4]) was 60.4 min. In addition, the remaining at 1.5 h, 1 mg/mL in data set [1] (setting [3]) turned out to be 34.4 ± 0.61%.
As to `CC[C@@H](C)[C@H]1NC(=O)[C@@H](Cc2ccc(O)cc2)NC(=O)[C@@H](N)CSSC[C@@H](C(=O)N2CCC[C@H]2C(=O)N[C@H](CC(C)C)C(=O)NCC(N)=O)NC(=O)[C@H](CC(N)=O)NC(=O)[C@H](CCC(N)=O)NC1=O` [Peptide P4], in data set [1] (HCM), the “higher stability than linear P1” value was found to be 90.3 ± 1.57% and the Degradation rate constant was 0.108 h⁻¹. Further, the half-life at 1 mg/mL in data set [1] (setting [4]) is 385 min. Also, the remaining at 1.5 h, 1 mg/mL in data set [1] (setting [3]) was 85.1 ± 0.21%. Besides, in data set [2], the “original dose detected in the basolateral chamber” value was 6.85 ± 2.05% and the “original dose detected within the colonic tissue” value is 3.0 ± 0.85%. For the same molecule, in data set [2] (male, Wistar, pH 7.4, 1 h (60 min), 1 mg/mL apical, read-out: apparent permeability (Papp)), the Papp at 1 h, 1 mg/mL is 57 ×10⁻⁶ cm/s. Also, in data set [2] (setting [5]), the Papp at 2 h, 1 mg/mL was found to be 206 ×10⁻⁶ cm/s.
Molecule `CC[C@@H](C)[C@H]1NC(=O)[C@@H](Cc2ccc(O)cc2)NC(=O)[C@H](C)NC(=O)CSC[C@@H](C(=O)N2CCC[C@H]2C(=O)N[C@H](CC(C)C)C(=O)NCC(N)=O)NC(=O)[C@H](CC(N)=O)NC(=O)[C@H](CCC(N)=O)NC1=O` [Peptide P5] ({CH2CO}-A[dY][dI]QNCP[dL]G-NH2; thioether N-6) returned a Degradation rate constant in data set [1] (HCM) of 0.0322 h⁻¹. Moreover, the half-life at 1 mg/mL in data set [1] (setting [4]) is 1290 min. For the same molecule, the remaining at 1.5 h, 1 mg/mL in data set [1] (setting [3]) turned out to be 95.2 ± 3.14%.
As to `CC[C@H](C)[C@@H]1NC(=O)[C@H](Cc2ccc(O)cc2)NC(=O)[C@@H](N)CSCc2cccc(c2)CSC[C@@H](C(=O)N2CCC[C@H]2C(=O)N[C@@H](CC(C)C)C(=O)NCC(N)=O)NC(=O)[C@H](CC(N)=O)NC(=O)[C@H](CCC(N)=O)NC1=O` [Peptide P6], in data set [1] (HCM), the “time to 100% degradation” value is on record as “less than 1 h” and the Degradation rate constant stood at 5.39 h⁻¹. In data set [1] (setting [4]), the half-life at 1 mg/mL was 7.71 min.
`CC[C@H](C)[C@@H]1NC(=O)[C@H](Cc2ccc(O)cc2)NC(=O)[C@@H](N)CSSC[C@@H](C(=O)N2CCC[C@H]2C(=O)N[C@H](CC(C)C)C(=O)NCC(N)=O)NC(=O)[C@H](CC(N)=O)NC(=O)[C@H](CCC(N)=O)NC1=O` [Peptide P7] yielded a Degradation rate constant in data set [1] (HCM) of 1.05 h⁻¹. In data set [1] (setting [4]), the half-life at 1 mg/mL is 39.6 min. In addition, the remaining at 1.5 h, 1 mg/mL in data set [1] (setting [3]) is 22.3 ± 0.85%.
Taken in the same sequence, the figures for `CC[C@@H](C)[C@H]1NC(=O)[C@@H](Cc2ccc(O)cc2)NC(=O)[C@@H](N)CSSC[C@@H](C(=O)N2CCC[C@H]2C(=O)N[C@@H](CC(C)C)C(=O)NCC(N)=O)NC(=O)[C@H](CC(N)=O)NC(=O)[C@H](CCC(N)=O)NC1=O` [Peptide P8] were 2.33 h⁻¹, 17.8 min and 3.7 ± 0.43%.
Take `CC[C@H](C)[C@H](NC(=O)[C@H](Cc1ccc(O)cc1)NC(=O)[C@H](C)N)C(=O)N[C@@H](CCC(N)=O)C(=O)N[C@@H](CC(N)=O)C(=O)N[C@@H](C)C(=O)N1CCC[C@H]1C(=O)N[C@H](CC(C)C)C(=O)NCC(N)=O` [Peptide P9] (H-AYIQNAP[dL]G-NH2): in data set [1] (HCM), the “time to total degradation” value is recorded as “less than 30 min” and the “time interval in which entirely depleted” value fell in the range of 0.0 to 0.5 h.
For `CC[C@@H](C)[C@@H](NC(=O)[C@@H](Cc1ccc(O)cc1)NC(=O)[C@H](C)N)C(=O)N[C@@H](CCC(N)=O)C(=O)N[C@@H](CC(N)=O)C(=O)N[C@@H](C)C(=O)N1CCC[C@H]1C(=O)N[C@@H](CC(C)C)C(=O)NCC(N)=O` [Peptide P10] (H-A[dY][dI]QNAPLG-NH2), the Degradation rate constant in data set [1] (HCM) came out at 2.05 h⁻¹. Moreover, in data set [1] (setting [4]), the half-life at 1 mg/mL is 20.3 min.
For `CC[C@@H](C)[C@@H](NC(=O)[C@@H](Cc1ccc(O)cc1)NC(=O)[C@H](C)N)C(=O)N[C@@H](CCC(N)=O)C(=O)N[C@@H](CC(N)=O)C(=O)N[C@@H](C)C(=O)N1CCC[C@H]1C(=O)N[C@H](CC(C)C)C(=O)NCC(N)=O` [Peptide P11] (H-A[dY][dI]QNAP[dL]G-NH2), in data set [1] (HCM), the Degradation rate constant is 0.289 h⁻¹. The same molecule showed a half-life at 1 mg/mL in data set [1] (setting [4]) of 144 min. Also, the remaining at 1.5 h, 1 mg/mL in data set [1] (setting [3]) amounted to 64.2 ± 1.18%. Moreover, the Papp at 2 h, 1 mg/mL in data set [2] (setting [5]) turned out to be 35.2 ×10⁻⁶ cm/s.
As for “P1: Linear form of oxytocin, the two cysteines replaced by alanines (AYIQNAPLG-NH2; ends and bridges not checked; UniProt P01178 20-28, looked up, variant C1A C6A) [Peptide P1]”, in data set [1] (HCM), the “time interval in which entirely depleted” value fell in the range of 0.0 to 0.5 h.

(Values after publication PMC10384666, “Impact of Peptide Structure on Colonic Stability and Tissue Permeability” (Pharmaceutics, 2023).)
